Results on one compound are retold here after PMC9063808, “Structural insights into the calcium dependence of Stig cyclases” (RSC Advances, 2019).

The target of this experiment is T1, FamC1 (Fischerella ambigua, UniProt A0A076N4W8, N137A).
T1 construct: gene ambU4; recombinant; homodimer in crystal
As to the kind of experiment: X-ray crystallography, […] A. To be noted: Ca1 site empty, Ca2 bound; substrate-binding pocket; ligand came from the crystallization solution, not added on purpose.

T1 sequence (A0A076N4W8 entry or part of it N137A): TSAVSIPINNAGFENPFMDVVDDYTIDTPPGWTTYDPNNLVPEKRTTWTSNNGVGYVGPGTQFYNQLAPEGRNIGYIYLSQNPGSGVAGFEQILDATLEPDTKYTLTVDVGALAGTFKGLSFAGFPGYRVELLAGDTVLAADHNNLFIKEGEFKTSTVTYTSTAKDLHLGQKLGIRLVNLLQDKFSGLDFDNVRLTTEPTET

Consider `N=C(N)NCCC[C@@H]1NC(=O)[C@H]2CCCN2C1=O` [CI-4], for which the “X-ray crystallography, 1.48 A” value was “The N137A crystal was grown in the same crystallization condition and one molecule of CI-4”.
